US12352763B2, “Method of determining autophagosome flux and uses thereof” (Stellenbosch University, priority 2016, dated 2025)

Experiments:
LC3, p62 and pmTOR = assay: Western blot analysis probing for LC3, p62 and pmTOR (validation); type: cell-based; settings: treatment with bafilomycin
Protocol: FIG. 8 is a Western blot analysis probing for LC3, p62 and pmTOR. […] This method, however, cannot measure dynamic changes and vesicular pool size required to measure autophagosome flux. […] Western blot analysis and TEM was performed in the presence and absence of bafilomycin A1. […] Therefore, autophagosome flux cannot be accurately assessed. It allows the detection of the respective protein, LC3 II, from a whole cell population, without linking the protein band signal to single cell pool sizes of entities. Moreover, the nature of Western blot analysis omits any measurements of dynamic changes (FIG. 8).

[1] = system: mouse embryonic fibroblast (MEF) cells; assay: Determining complete fusion inhibition: saturating inhibitor concentration, Western blot; type: cell-based
From the text: FIG. 2 is a Western blot analysis and corresponding graphs illustrating the results of the study to determine the saturating inhibitor concentration of bafilomycin A1 required to fully block autophagosomal/lysosomal fusion.
This saturating concentration should be determined prior to performing the method. […] Although this can be performed through Western blot analysis, a more precise technique is to determine the change over time of the autophagosome pool size after inhibition of fusion using the method of the present invention (FIG. 2). Thus, the change in pool size before and shortly after inhibition of fusion is determined and the rate of change (typically expressed over 1 hour) is calculated.
Bafilomycin A1 was selected as the inhibitor in this example because it is the most commonly used drug in the field.

MEF cells = assay: Autophagosome flux assay: live-cell z-stack fluorescence imaging of GFP-LC3 / LysoTracker Red cells, with fusion blocked by 400 nM bafilomycin A1; type: cell-based, mouse
Protocol: For the autophagosomal pool size analysis, the autophagosomes and the lysosomes were visualized and labelled specifically. The autophagolysosomal entities were identified by co-localization analysis. Stably transfected green fluorescent protein-LC3 (GFP-LC3) cells were treated with the lysosome-labelling marker, LysoTracker® Red (Life Technologies, #L-7528) in order to visualize the autophagosomes, the lysosomes and the autophagolysosomes. MEF cells were seeded onto a sterile cover-slip patterned with large fibronectin discs (CYTOO, #10-003-10) in a CYTOO chamber single well plate. Cells were seeded at a density of 2×10^4 cells and incubated for 30 minutes. Thereafter, the chamber was rinsed several times using DMEM until all adherent cells in the non-patterned regions were washed off. The cells were maintained for 2 hours prior to the experiment in DMEM, containing 75 nM LysoTracker Red, in a humidified atmosphere in the presence of 5% CO2 at […]. The chamber plate was then enclosed in an Olympus IX-81 stage of an inverted fluorescence microscope in the presence of 5% CO2 for the duration of the experiment. Serum starvation was avoided, since it would upregulate autophagosome flux and mask the cell-inherent basal autophagosome flux.
Z-stack image acquisition was performed in order to acquire the complete autophagosomal pool size. An Olympus IX-81 coupled to an MT-20 and xenon burner 150 W and an F-view camera were employed. Temperature and 5% CO2 were controlled. For live cell acquisition, single cell acquisition was performed using automated stage coordinate settings. CellR-based software (Olympus, Soft Imaging) was employed. Images were processed using Cell R imaging software and exported to the modified (for high throughput) automated counting software (ImageJ with WatershedCounting3D plug in (Gniadek et al., 2007)), to count the green and red puncta using voxel dimension 0.08 for both x and y as the search parameters. Puncta count and morphometric analysis were performed using the Watershed Counting3D plugin of ImageJ. Images were converted to RGB colour format and processed by WatershedCounting3D. Puncta count and surface area were determined for each colour puncta from the output file generated. Equations 1, 2 and 3 described above were used to determine the radius, volume and total surface area of spheres.
In order to assess the basal autophagosome flux in steady state, cells were treated with 400 nM bafilomycin A1 (FIG. 4). The autophagosomal pool size was monitored for two hours post-inhibition and images were acquired at 30 minute intervals. The basal flux, Jbasal, was determined by allowing the autophagic system to reach a steady state under basal conditions (basal flux is the initial slope of the progress curve at the point of inhibition of fusion). Multiple cells (n=10) were assessed simultaneously using a stage control. The transition time, τ, was calculated from the ratio τ=nA/J of the autophagosome pool size and autophagosome flux, and indicated the turnover time of the autophagosome pool at steady state.
The autophagosome flux J, the autophagosomal pool size nA, and the autophagosomal transition time τ were determined (FIG. 6 and Table 1).

[2] = 25 nM rapamycin versus basal, increase

Row | Compound | LC3II and p62 bands (LC3, p62 and pmTOR) | Inhibition of autophagosomal-lysosomal fusion ([1]; 400 nM for 2 hours) | Cell toxicity ([1]; concentration of 800 nM) | Transition time, % change (% Δ) (MEF cells; 25 nM rapamycin versus basal, decrease) [%] | Autophagosome Pool size nA, % change (% Δ) (MEF cells; [2]) [%] | Autophagosome flux J, % change (% Δ) (MEF cells; [2]) [%] | Autophagolysosomal transition time, τAL (MEF cells; induced with rapamycin) [h] | Autophagosomal membrane flux, Jmem (MEF cells; induced with rapamycin) [μm^2/hr/cell] | Cytoplasmic volume consumption rate, Jvol (MEF cells; induced with rapamycin) [fL/hr/cell] | Autophagosome flux, J (MEF cells; induced with rapamycin (25 nM)) [A/hr/cell] | Average volume of an autophagosome (MEF cells; induced with rapamycin (25 nM)) [fL] | Number of autophagolysosomes, nAL (MEF cells; induced with rapamycin (25 nM)) [AL/cell] | Number of autophagosomes, nA (MEF cells; induced with rapamycin (25 nM)) [A/cell] | Autophagosomal transition time, τA (MEF cells; induced with rapamycin, τ=nA/J) [h] | Autophagosome Pool size nA (MEF cells; modulator rapamycin (Table 2)) | Autophagosome flux, J (MEF cells; modulator rapamycin (Table 2)) | Transition time (MEF cells; modulator rapamycin (Table 2)) [h] | Autophagosome Pool size nA, net change (Δ) (MEF cells; rapamycin versus basal) | Autophagosome flux J, net change (Δ) (MEF cells; rapamycin versus basal) | Transition time, net change (Δ) (MEF cells; rapamycin versus basal, decrease) [h]
1 | CO/C1=C\C(C)=C\[C@@H](C)[C@@H](O)[C@@H](C)C/C(C)=C/C=C/[C@H](OC)[C@@H]([C@@H](C)[C@@H](O)[C@H](C)[C@@]2(O)C[C@@H](O)[C@H](C)[C@@H](C(C)C)O2)OC1=O [Bafilomycin A1] | increases | complete inhibition | cell toxicity was observed |  |  |  |  |  |  |  |  |  |  |  |  |  |  |  |  | 
2 | CO[C@H]1C[C@@H]2CC[C@@H](C)[C@@](O)(O2)C(=O)C(=O)N2CCCC[C@H]2C(=O)O[C@H]([C@H](C)C[C@@H]2CC[C@@H](O)[C@H](OC)C2)CC(=O)[C@H](C)/C=C(\C)[C@@H](O)[C@@H](OC)C(=O)[C@H](C)C[C@H](C)/C=C/C=C/C=C/1C [rapamycin] |  |  |  | 69.8 | 22.4 | 315 | 2.4 | 8268 | 495 | 105.4 | 4.7 | 251.2 | 16.7 | 0.16 | 16.4 No. of autophagosomes | 105.4 No. of autophagosomes/cell*hr^1 | 0.16 | 3 No. of autophagosomes | 80 No. of autophagosomes/cell*hr^1 | 0.37
